Assays:
Candida albicans (562) = experiment: MIC for yeast and yeast-like strains; assay type: cell-based; details: 48 hours, 35° C., read-out: Minimal Inhibitory Concentration (MIC)
Experimental: (§1) The following strains were used (the number of strains is in brackets): Candida (13); Criptococcus (2); Saccharormyces (1); Torulopsis (1).
(§2) Yeast Nitrogen Base supplemented with 0.15% asparagine and 1.0% glucose (as carbon source) was the medium utilized in the assays.
(§3) This medium was buffered with 0.165 M 2-(N-morpholino) propane sulfonic acid (MOPS), a non-chelating buffer. […]
(§4) The inoculum was prepared from an overnight broth culture (a 48-hour culture only for Cryptococcus) in Sabouraud broth and appropriately diluted to yield a final suspension containing approximately 5.0×10^6 Colony Forming Units per ml (CFU/ml), when compared to the Mc Farland's standard control (BRAY W. E., Clinical Laboratory Methods, 5th Ed. C. V. MOSBY, St. Louis, Mo, 1957).
(§5) After further diluting (1:50), a […] volume of such fungal suspensions and an equal volume of the substance solutions were distributed into each well of a microtiter plate (96 wells, round bottom). Such a procedure eventually allowed for an "in vitro" antimycotic activity assay utilizing final fungal inocula of approximately 5.0×10^4 CFU/ml.

Candida albicans (A 54) = experiment: MIC for yeast and yeast-like strains; assay type: cell-based; details: 48 hours, 35° C., read-out: Minimal Inhibitory Concentration (MIC)
Experimental: as §1, §2, §3, §4, §5

Candida krusei (ISS 1) = experiment: MIC for yeast and yeast-like strains; assay type: cell-based; details: Pichia kudriavzevii; 48 hours, 35° C.; read-out: Minimal Inhibitory Concentration (MIC)
Experimental: as §1, §2, §3, §4, §5

[1] = tested on: Candida tropicalis (5705); experiment: MIC for yeast and yeast-like strains; assay type: cell-based; details: 48 hours, 35° C., read-out: Minimal Inhibitory Concentration (MIC)
Experimental: as §1, §2, §3, §4, §5

[2] = tested on: Cryptococcus neoformans (4711); experiment: MIC for yeast and yeast-like strains; assay type: cell-based; details: 48 hours, 35° C., read-out: Minimal Inhibitory Concentration (MIC)
Experimental: as §1, §2, §3, §4, §5

[3] = tested on: Saccharomyces cerevisiae (ATCC 7752); experiment: MIC for yeast and yeast-like strains; assay type: cell-based; details: ATCC7752, 48 hours, 35° C., read-out: Minimal Inhibitory Concentration (MIC)
Experimental: as §1, §2, §3, §4, §5

[4] = tested on: Torulopsis candida (D.S.); experiment: MIC for yeast and yeast-like strains; assay type: cell-based; details: Suzukiozyma candida; 48 hours, 35° C.; read-out: Minimal Inhibitory Concentration (MIC)
Experimental: as §1, §2, §3, §4, §5

Candida albicans (PG) = experiment: MIC and MFC for yeast and yeast-like strains; assay type: cell-based; details: 48 hours, 35° C., read-out: Minimal Inhibitory Concentration (MIC)
Experimental: as §1, §2
(§6) This medium was buffered with 0.165 M 2-(N-morpholino) propane sulfonic acid (MOPS), a non-chelating buffer.
(§7) Antimicrob. Agents Cheroother. Aug. 34.8:1542-1545).
as §4, §5
(§8) The minimal fungicidal concentration was evaluated by spot-transferring onto Petri dishes, containing Sabouraud agar, 0.01-ml volumes of all the samples showing no visible fungal growth.

[5] = tested on: Candida albicans (ATCC 2091); experiment: MIC for yeast and yeast-like strains; assay type: cell-based; details: ATCC2091, 48 hours, 35° C., read-out: Minimal Inhibitory Concentration (MIC)
Experimental: as §1, §2, §6, §7, §4, §5

Candida albicans (ISS 1) = experiment: MIC for yeast and yeast-like strains; assay type: cell-based; details: 48 hours, 35° C., read-out: Minimal Inhibitory Concentration (MIC)
Experimental: as §1, §2, §6, §7, §4, §5

Candida glabrata (ISS 1) = experiment: MIC for yeast and yeast-like strains; assay type: cell-based; details: Nakaseomyces glabratus; 48 hours, 35° C.; read-out: Minimal Inhibitory Concentration (MIC)
Experimental: as §1, §2, §6, §7, §4, §5

[6] = tested on: Candida guilliermondii (ISS 1); experiment: MIC for yeast and yeast-like strains; assay type: cell-based; details: Meyerozyma guilliermondii; 48 hours, 35° C.; read-out: Minimal Inhibitory Concentration (MIC)
Experimental: as §1, §2, §6, §7, §4, §5

[7] = tested on: Candida parapsilosis (ISS 1); experiment: MIC for yeast and yeast-like strains; assay type: cell-based; details: Lodderomyces parapsilosis; 48 hours, 35° C.; read-out: Minimal Inhibitory Concentration (MIC)
Experimental: as §1, §2, §6, §7, §4, §5

[8] = tested on: Candida pseudotropicalis (EC 1); experiment: MIC for yeast and yeast-like strains; assay type: cell-based; details: Kluyveromyces marxianus; 48 hours, 35° C.; read-out: Minimal Inhibitory Concentration (MIC)
Experimental: as §1, §2, §6, §7, §4, §5

[9] = tested on: Candida tropicalis (ISS 1); experiment: MIC for yeast and yeast-like strains; assay type: cell-based; details: 48 hours, 35° C., read-out: Minimal Inhibitory Concentration (MIC)
Experimental: as §1, §2, §6, §7, §4, §5

[10] = tested on: Cryptococcus neoformans (ISS 1); experiment: MIC for yeast and yeast-like strains; assay type: cell-based; details: 48 hours, 35° C., read-out: Minimal Inhibitory Concentration (MIC)
Experimental: as §1, §2, §6, §7, §4, §5

yeast-like fungi = experiment: MIC / MFC for yeast-like fungi, all strains; assay type: cell-based, Candida, Cryptococcus, Saccharomyces, Torulopsis; details: versus susceptible strains; read-out: Mean MIC values
Experimental: as §1, §2, §3, §4, §5, §8

[11] = tested on: Aspergillus fumigatus (1/A); experiment: MIC for filamentous fungi; assay type: cell-based; details: read-out: Minimal Inhibitory Concentration (MIC)
Excerpt: (§9) The following strains were used (the number of strains is in brackets): Aspergillus (5); Fusarium (1); Mucor (1); Penicillium (1).
(§10) The tested substances were: ST 712, ST 722, ST 982, ST 983, ST 1000, ST 1001, ST 1032, ST 1033, ST 1034, ST 1036, ST 1037, ST 1038, ST 1050, ST 1051, ST 1052, ST 1053. The assay medium was the same as the one used in the previous study. The conidia from 72-hour cultures in Sabouraud agar, collected by washing with Sabouraud medium and Tween 80 (one drop of Tween per 10 ml of medium), were utilized as inoculum (5.0×10^4 CFU/ml).
(§11) The assay was performed using the same procedure as described for yeast-like fungi.
(§12) Also the evaluation of MIC and MFC was as reported previously.

[12] = tested on: Aspergillus fumigatus (2/A); experiment: MIC for filamentous fungi; assay type: cell-based; details: read-out: Minimal Inhibitory Concentration (MIC)
Excerpt: as §9, §10, §11, §12

[13] = tested on: Aspergillus fumigatus (ATCC 28212); experiment: MIC for filamentous fungi; assay type: cell-based; details: ATCC28212, read-out: Minimal Inhibitory Concentration (MIC)
Excerpt: as §9, §10, §11, §12

[14] = tested on: Aspergillus fumigatus (C/1); experiment: MIC for filamentous fungi; assay type: cell-based; details: read-out: Minimal Inhibitory Concentration (MIC)
Excerpt: as §9, §10, §11, §12

[15] = tested on: Aspergillus niger (ATCC 16404); experiment: MIC for filamentous fungi; assay type: cell-based; details: ATCC16404, read-out: Minimal Inhibitory Concentration (MIC)
Excerpt: as §9, §10, §11, §12

Fusarium sp. (ISS 1) = experiment: MIC for filamentous fungi; assay type: cell-based; details: read-out: Minimal Inhibitory Concentration (MIC)
Excerpt: as §9, §10, §11, §12

Mucor mucedo (ATCC 7941) = experiment: MIC for filamentous fungi; assay type: cell-based; details: ATCC7941, read-out: Minimal Inhibitory Concentration (MIC)
Excerpt: as §9, §10, §11, §12

Penicillium sp. (1302) = experiment: MIC for filamentous fungi; assay type: cell-based; details: read-out: Minimal Inhibitory Concentration (MIC)
Excerpt: as §9, §10, §11, §12

filamentous fungi = experiment: MIC / MFC for filamentous fungi, all strains; assay type: cell-based, Aspergillus, Fusarium, Mucor, Penicillium; details: versus susceptible strains; read-out: Mean MIC values
Excerpt: as §9, §10, §11, §12

[16] = tested on: Epidermophyton floccosum (IHEM 3495); experiment: MIC for dermatophytic fungi; assay type: cell-based; details: 35° C., 96 hours, read-out: Minimal Inhibitory Concentration (MIC)
Experimental: (§13) The following strains were used: Trichophyton menthagrophytes ATCC 9533, Trichophyton rubrum IHEM 4274, Microsporum canis IHEM 3522, Epydermophyton floccosum IHEM 3495. The tested substances were: ST 722, ST 1033, ST 1037, ST 1050, ST 1051, ST 1052,. ST 1053.
(§14) The assay was performed following the same procedure described for the yeasts, by using 7-day fungi cultures grown at 30° C. in Potato Dextrose agar, and harvested with Sabouraud broth and Tween 80 (0.5%).
(§15) After washing with Yeast Nitrogen Base, supplemented with asparagine and glucose (as carbon source), the fungal suspension was fragmented using a tissue grinder until the largest clumps or aggregates were undetectable within the grinder. This fungal suspension was then appropriately diluted in YNB to yield a concentration of 2.0×10^5 infective particles/ml (small mycelium fragments, micro-and macroaleuriospores).
(§16) Volumes of 100 μl both of the fungal suspensions and substance solutions, two-fold serially diluted in assay medium, were distributed into each well of a microtiter plate (96 wells, round bottom), which was incubated at 35° C. for 96 hours.

[17] = tested on: Microsporum canis (IHEM 3522); experiment: MIC for dermatophytic fungi; assay type: cell-based; details: 35° C., 96 hours, read-out: Minimal Inhibitory Concentration (MIC)
Experimental: as §13, §14, §15, §16

[18] = tested on: Trichophyton menthagrophites (ATCC 9533); experiment: MIC for dermatophytic fungi; assay type: cell-based; details: ATCC9533, 35° C., 96 hours, read-out: Minimal Inhibitory Concentration (MIC)
Experimental: as §13, §14, §15, §16

[19] = tested on: Trichophyton rubrum (IHEM 4274); experiment: MIC for dermatophytic fungi; assay type: cell-based; details: 35° C., 96 hours, read-out: Minimal Inhibitory Concentration (MIC)
Experimental: as §13, §14, §15, §16

dermatophytic fungi = experiment: MIC / MFC for dermatophytic fungi, all strains; assay type: cell-based, Trichophyton, Microsporum, Epidermophyton; details: versus susceptible strains
Experimental: as §13, §14, §15, §16

Candida albicans (Ca 2) = experiment: MIC for yeast and yeast-like strains; assay type: cell-based; details: 48 hours, 35° C., read-out: Minimal Inhibitory Concentration (MIC)
Experimental: as §1, §2, §3, §4, §5

Row | SMILES | MIC (Candida albicans (562)) [mg/L] | MIC (Candida albicans (A 54)) [mg/L] | MIC (Candida krusei (ISS 1)) [mg/L] | MIC [1] [mg/L] | MIC [2] [mg/L] | MIC [3] [mg/L] | MIC [4] [mg/L] | MIC (Candida albicans (PG)) [mg/L] | MIC [5] [mg/L] | MIC (Candida albicans (ISS 1)) [mg/L] | MIC (Candida glabrata (ISS 1)) [mg/L] | MIC [6] [mg/L] | MIC [7] [mg/L] | MIC [8] [mg/L] | MIC [9] [mg/L] | MIC [10] [mg/L] | MIC (yeast-like fungi) [mg/L] | MIC [11] [mg/L] | MIC [12] [mg/L] | MIC [13] [mg/L] | further results
1 | CCCCCCCCCCCCCOC(=O)C[C@H](C[N+](C)(C)C)OC(=O)CC(C)C [ST 1033] | 1.56 | 1.56 | 3.12 | 3.12 | 0.78 | 3.12 | 3.12 | 3.12 | 3.12 | 1.56 | 3.12 | 6.25 | 3.12 | 3.12 | 3.12 | 1.56 | 2.7 | 3.12 | 3.12 | 3.12 | MIC [14]: 3.12 mg/L; MIC [15]: 6.25 mg/L; MIC (Fusarium sp. (ISS 1)): 3.12 mg/L; MIC (Mucor mucedo (ATCC 7941)): 6.25 mg/L; MIC (Penicillium sp. (1302)): 3.12 mg/L; MIC (filamentous fungi): 3.9 mg/L; MIC [16]: 25 mg/L; MIC [17]: 6.25 mg/L; MIC [18]: 12.5 mg/L; MIC [19]: 6.25 mg/L; MIC (dermatophytic fungi): 12.5 mg/L
2 | CCCCCCCCCCCOC(=O)C[C@H](C[N+](C)(C)C)OC(=O)CCCCCC [ST 1036] | 1.56 | 1.56 | 1.56 | 3.12 | 1.56 | 3.12 | 3.12 | 3.12 | 1.56 | 1.56 | 3.12 | 6.25 | 6.25 | 6.25 | 3.12 | 3.12 | 2.84 | 6.25 | 6.25 | 3.12 | MIC (Candida albicans (Ca 2)): 1.56 mg/L; MIC [14]: 3.12 mg/L; MIC [15]: 3.12 mg/L; MIC (Fusarium sp. (ISS 1)): 3.12 mg/L; MIC (Mucor mucedo (ATCC 7941)): 6.25 mg/L; MIC (Penicillium sp. (1302)): 3.12 mg/L; MIC (filamentous fungi): 4.29 mg/L
3 | CCCCCCCCCCCOC(=O)C[C@H](C[N+](C)(C)C)OC(=O)CCC(C)C [ST 1034] | 1.56 | 1.56 | 1.56 | 3.12 | 1.56 | 3.12 | 3.12 | 3.12 | 1.56 | 1.56 | 3.12 | 6.25 | 6.25 | 6.25 | 3.12 | 3.12 | 3.03 | 6.25 | 3.12 | 6.25 | MIC (Candida albicans (Ca 2)): 1.56 mg/L; MIC [14]: 6.25 mg/L; MIC [15]: 6.25 mg/L; MIC (Fusarium sp. (ISS 1)): 3.12 mg/L; MIC (Mucor mucedo (ATCC 7941)): 12.5 mg/L; MIC (Penicillium sp. (1302)): 3.12 mg/L; MIC (filamentous fungi): 5.85 mg/L

From patent publication US5525627A, “Esters of acyl carnitines with long-chain aliphatic alcohols and pharmaceutical compositions containing same having antimycotic activity” (Sigma-Tau Industrie Farmaceutiche Riunite S.p.A., priority 1992, dated 1996)
